Data published in ChEMBL document CHEMBL3621049, “Imidazole derivatives show anticancer potential by inducing apoptosis and cellular senescence” (2014).
Activity calls are given as the source filed them.

Experiments:
Assay type in all cases: functional, cell-based
[1] = system: NCI-H460; experiment: Growth inhibition of human NCI-H460 cells at 10 uM by sulforhodamine B assay
[2] = system: U-251; experiment: Growth inhibition of human U251 cells at 10 uM by sulforhodamine B assay
[3] = system: MOLT-4; experiment: Growth inhibition of human MOLT4 cells at 10 uM by sulforhodamine B assay
[4] = system: KM12; experiment: Growth inhibition of human KM12 cells at 10 uM by sulforhodamine B assay
[5] = system: OVCAR-8; experiment: Growth inhibition of human OVCAR8 cells at 10 uM by sulforhodamine B assay
[6] = system: A498; experiment: Growth inhibition of human A498 cells at 10 uM by sulforhodamine B assay
[7] = system: Hs-578T; experiment: Growth inhibition of human Hs 578T cells at 10 uM by sulforhodamine B assay
[8] = system: SK-MEL-2; experiment: Growth inhibition of human SK-MEL-2 cells at 10 uM by sulforhodamine B assay
[9] = system: UACC-62; experiment: Growth inhibition of human UACC62 cells at 10 uM by sulforhodamine B assay
[10] = system: MDA-MB-435; experiment: Growth inhibition of human MDA-MB-435 cells at 10 uM by sulforhodamine B assay
[11] = system: SF-539; experiment: Growth inhibition of human SF539 cells at 10 uM by sulforhodamine B assay
[12] = system: CAKI-1; experiment: Growth inhibition of human Caki1 cells at 10 uM by sulforhodamine B assay
[13] = system: HT-29; experiment: Growth inhibition of human HT-29 cells at 10 uM by sulforhodamine B assay
[14] = system: RPMI-8226; experiment: Growth inhibition of human RPMI8226 cells at 10 uM by sulforhodamine B assay
[15] = system: HCT-15; experiment: Growth inhibition of human HCT15 cells at 10 uM by sulforhodamine B assay
[16] = system: HOP-92; experiment: Growth inhibition of human HOP92 cells at 10 uM by sulforhodamine B assay
[17] = system: ACHN; experiment: Growth inhibition of human ACHN cells at 10 uM by sulforhodamine B assay
[18] = system: CCRF-CEM; experiment: Growth inhibition of human CCRF-CEM cells at 10 uM by sulforhodamine B assay
[19] = system: K562; experiment: Growth inhibition of human K562 cells at 10 uM by sulforhodamine B assay
[20] = system: A549; experiment: Growth inhibition of human A549/ATCC cells at 10 uM by sulforhodamine B assay
[21] = system: UO-31; experiment: Growth inhibition of human UO31 cells at 10 uM by sulforhodamine B assay
[22] = system: 786-0; experiment: Growth inhibition of human 786-0 cells at 10 uM by sulforhodamine B assay
[23] = system: LOX IMVI; experiment: Growth inhibition of human LOXIMVI cells at 10 uM by sulforhodamine B assay
[24] = system: UACC-257; experiment: Growth inhibition of human UACC257 cells at 10 uM by sulforhodamine B assay
[25] = system: NCI/ADR-RES; experiment: Growth inhibition of human NCI/ADR-RES cells at 10 uM by sulforhodamine B assay
[26] = system: SR; experiment: Growth inhibition of human SR cells at 10 uM by sulforhodamine B assay
[27] = system: RXF 393; experiment: Growth inhibition of human RXF393 cells at 10 uM by sulforhodamine B assay
[28] = system: COLO 205; experiment: Growth inhibition of human COLO205 cells at 10 uM by sulforhodamine B assay
[29] = system: HCC 2998; experiment: Growth inhibition of human HCC2998 cells at 10 uM by sulforhodamine B assay
[30] = system: SN12C; experiment: Growth inhibition of human SN12C cells at 10 uM by sulforhodamine B assay
[31] = system: MDA-MB-468; experiment: Growth inhibition of human MDA-MB-468 cells at 10 uM by sulforhodamine B assay
[32] = system: SF-295; experiment: Growth inhibition of human SF295 cells at 10 uM by sulforhodamine B assay
[33] = system: OVCAR-4; experiment: Growth inhibition of human OVCAR4 cells at 10 uM by sulforhodamine B assay
[34] = system: M14; experiment: Growth inhibition of human M14 cells at 10 uM by sulforhodamine B assay
[35] = system: MCF7; experiment: Growth inhibition of human MCF7 cells at 10 uM by sulforhodamine B assay
[36] = system: NCI-H23; experiment: Growth inhibition of human NCI-H23 cells at 10 uM by sulforhodamine B assay
[37] = system: HOP-62; experiment: Growth inhibition of human HOP62 cells at 10 uM by sulforhodamine B assay
[38] = system: SW-620; experiment: Growth inhibition of human SW620 cells at 10 uM by sulforhodamine B assay
[39] = system: SNB-19; experiment: Growth inhibition of human SNB19 cells at 10 uM by sulforhodamine B assay
[40] = system: TK-10; experiment: Growth inhibition of human TK10 cells at 10 uM by sulforhodamine B assay
[41] = system: MDA-MB-231; experiment: Growth inhibition of human MDA-MB-231 cells at 10 uM by sulforhodamine B assay
[42] = system: HL-60(TB); experiment: Growth inhibition of human HL-60(TB) cells at 10 uM by sulforhodamine B assay
[43] = system: IGROV-1; experiment: Growth inhibition of human IGROV1 cells at 10 uM by sulforhodamine B assay
[44] = system: SF-268; experiment: Growth inhibition of human SF268 cells at 10 uM by sulforhodamine B assay
[45] = system: OVCAR-5; experiment: Growth inhibition of human OVCAR5 cells at 10 uM by sulforhodamine B assay
[46] = system: DU-145; experiment: Growth inhibition of human DU145 cells at 10 uM by sulforhodamine B assay
[47] = system: SK-MEL-5; experiment: Growth inhibition of human SK-MEL-5 cells at 10 uM by sulforhodamine B assay
[48] = system: SNB-75; experiment: Growth inhibition of human SNB75 cells at 10 uM by sulforhodamine B assay
[49] = system: BT-549; experiment: Growth inhibition of human BT549 cells at 10 uM by sulforhodamine B assay
[50] = system: SK-OV-3; experiment: Growth inhibition of human SKOV3 cells at 10 uM by sulforhodamine B assay
[51] = system: HCT-116; experiment: Growth inhibition of human HCT116 cells at 10 uM by sulforhodamine B assay
[52] = system: SK-MEL-28; experiment: Growth inhibition of human SK-MEL-28 cells at 10 uM by sulforhodamine B assay
[53] = system: T47D; experiment: Growth inhibition of human T47D cells at 10 uM by sulforhodamine B assay
[54] = system: OVCAR-3; experiment: Growth inhibition of human OVCAR3 cells at 10 uM by sulforhodamine B assay
[55] = system: NCI-H322M; experiment: Growth inhibition of human NCI-H322M cells at 10 uM by sulforhodamine B assay
[56] = system: NCI-H226; experiment: Growth inhibition of human NCI-H226 cells at 10 uM by sulforhodamine B assay
[57] = system: Malme-3M; experiment: Growth inhibition of human MALME-3M cells at 10 uM by sulforhodamine B assay
[58] = system: PC-3; experiment: Growth inhibition of human PC3 cells at 10 uM by sulforhodamine B assay
[59] = system: NCI-H522; experiment: Growth inhibition of human NCI-H522 cells at 10 uM by sulforhodamine B assay

Measured: growth inhibition (GI)

COc1ccc(-c2nc(-c3ccccc3)c(-c3ccccc3)[nH]2)cc1OC1CCCC1
active: all assays above

COc1cc(-c2nc(-c3ccccc3)c(-c3ccccc3)n2C2CCCCC2)ccc1OC1CCCC1
active: all assays above
